Test results reported in BigSolDB 2.1.

NC(CO)(CO)CO
solubility (mole fraction)
Conditions	293.2 K	298.2 K	303.2 K	308.2 K	313.2 K
in n-propanol	0.0038	0.005	0.0063	0.0072	0.0088
in water	0.0831	0.092	0.101	0.11	0.123
